Test results as given in paper PMC5578959, “Selective LRRK2 kinase inhibition reduces phosphorylation of endogenous Rab10 and Rab12 in human peripheral mononuclear blood cells” (Scientific Reports, 2017).

Legend:
Test in all cases: KiNativ profiling in human PBMCs
Type in all cases: binding
[1] = system: T1, RSK1 domain2; settings: Lys2
T1 construct: RSK1 domain2; purchased ActivX Technologies (KiNativ)
Protocol: (§1) Compounds were shipped to ActivX Technologies (San Diego, US) where LRRK2 target engagement and broad kinase profiling was performed using KiNativ™ procedures. Live cell treatment of human peripheral blood mononuclear cells (PBMCs) at two compound concentrations (1 µM and 0.1 µM) were used to evaluate and compare in vitro target engagement and kinase selectivity, respectively (see Supplementary File 1).

[2] = system: RSK1,RSK2,RSK3 domain1; settings: Lys2
Protocol: as §1

[3] = system: T2, LOK
T2 construct: purchased ActivX Technologies (KiNativ)
Protocol: as §1

[4] = system: T3, PLK1; settings: Lys1
T3 construct: purchased ActivX Technologies (KiNativ)
Protocol: as §1

[5] = system: T4, PIK3CD; settings: ATP
T4 construct: purchased ActivX Technologies (KiNativ)
Protocol: as §1

[6] = system: T5, MAP3K4; settings: Lys2
T5 construct: purchased ActivX Technologies (KiNativ)
Protocol: as §1

[7] = system: T6, IRAK4
T6 construct: purchased ActivX Technologies (KiNativ)
Protocol: as §1

[8] = system: T7, PRP4; settings: Other
T7 construct: purchased ActivX Technologies (KiNativ)
Protocol: as §1

[9] = system: T8, NEK1; settings: Lys2
T8 construct: purchased ActivX Technologies (KiNativ)
Protocol: as §1

[10] = system: T9, LATS2; settings: Lys2
T9 construct: purchased ActivX Technologies (KiNativ)
Protocol: as §1

[11] = system: T10, ARAF; settings: Lys2
T10 construct: purchased ActivX Technologies (KiNativ)
Protocol: as §1

[12] = system: T11, KSR1; settings: 0.1µM; Activation Loop
T11 construct: purchased ActivX Technologies (KiNativ)
Protocol: as §1

[13] = system: T12, FRAP; settings: ATP
T12 construct: purchased ActivX Technologies (KiNativ)
Protocol: as §1

[14] = system: T13, JAK1 domain2
T13 construct: JAK1 domain2; purchased ActivX Technologies (KiNativ)
Protocol: as §1

[15] = system: T14, MARK2; settings: Lys1
T14 construct: purchased ActivX Technologies (KiNativ)
Protocol: as §1

[16] = system: T15, PIK3CB; settings: ATP
T15 construct: purchased ActivX Technologies (KiNativ)
Protocol: as §1

[17] = system: T16, NEK8; settings: Lys2
T16 construct: purchased ActivX Technologies (KiNativ)
Protocol: as §1

[18] = system: T17, CSK
T17 construct: purchased ActivX Technologies (KiNativ)
Protocol: as §1

[19] = system: T18, ZAP70
T18 construct: purchased ActivX Technologies (KiNativ)
Protocol: as §1

[20] = system: T19, GPRK6; settings: Lys2
T19 construct: purchased ActivX Technologies (KiNativ)
Protocol: as §1

[21] = system: KSR1,KSR2; settings: Activation Loop
Protocol: as §1

[22] = system: T20, RSK2 domain2; settings: Lys2
T20 construct: RSK2 domain2; purchased ActivX Technologies (KiNativ)
Protocol: as §1

[23] = system: T21, TBK1; settings: Lys1
T21 construct: purchased ActivX Technologies (KiNativ)
Protocol: as §1

[24] = system: T22, JAK3 domain2
T22 construct: JAK3 domain2; purchased ActivX Technologies (KiNativ)
Protocol: as §1

[25] = system: T23, CHK2
T23 construct: purchased ActivX Technologies (KiNativ)
Protocol: as §1

[26] = system: T24, RSK1 domain1
T24 construct: RSK1 domain1; purchased ActivX Technologies (KiNativ)
Protocol: as §1

[27] = system: T25, IKKb; settings: Lys2
T25 construct: purchased ActivX Technologies (KiNativ)
Protocol: as §1

[28] = system: T26, NuaK2; settings: Lys1
T26 construct: purchased ActivX Technologies (KiNativ)
Protocol: as §1

[29] = system: MST4,YSK1; settings: Lys2
Protocol: as §1

[30] = system: T27, BARK1; settings: Lys2
T27 construct: purchased ActivX Technologies (KiNativ)
Protocol: as §1

[31] = system: T28, PAN3; settings: Protein Kinase Domain
T28 construct: purchased ActivX Technologies (KiNativ)
Protocol: as §1

[32] = system: T29, GSK3A; settings: Lys2
T29 construct: purchased ActivX Technologies (KiNativ)
Protocol: as §1

[33] = system: T30, PYK2; settings: Lys1
T30 construct: purchased ActivX Technologies (KiNativ)
Protocol: as §1

[34] = system: T31, PIK3CG; settings: ATP
T31 construct: purchased ActivX Technologies (KiNativ)
Protocol: as §1

[35] = system: T32, STLK3; settings: Lys2
T32 construct: purchased ActivX Technologies (KiNativ)
Protocol: as §1

Cc1cccc(-c2cc(Nc3ccn(C)n3)nc3[nH]cc(C#N)c23)c1 [Lu AF58786]
Inhibition ([1]; 0.1µM): 11.6% | Inhibition ([1]; 1µM): 5.6% | Inhibition ([2]; 0.1µM): 14.1% | Inhibition ([2]; 1µM): 29.7% | Inhibition ([3]; 0.1µM, Lys1): 13.2% | Inhibition ([3]; 0.1µM, Lys2): 1.8% | Inhibition ([3]; 1µM, Lys1): 9.9% | Inhibition ([4]; 0.1µM): -7.7% | Inhibition ([4]; 1µM): -19.7% | Inhibition ([5]; 0.1 µM, TKVNWLAHNVSKDNRQ): -4.8% | Inhibition ([5]; 0.1 µM, VNWLAHNVSKDNRQ): 8.9% | Inhibition ([5]; 1 µM, TKVNWLAHNVSKDNRQ): 14.4% | Inhibition ([5]; 1 µM, VNWLAHNVSKDNRQ): 18.8% | Inhibition ([6]; 0.1µM): 11.1% | Inhibition ([6]; 1µM): -2.7% | Inhibition ([7]; 0.1µM, Lys1): 16.2% | Inhibition ([7]; 0.1µM, Lys2): 7.0% | Inhibition ([7]; 1µM, Lys1): 13.3% | Inhibition ([7]; 1µM, Lys2): 8.9% | Inhibition ([8]; 0.1 µM): -2.3% | Inhibition ([8]; 1 µM): 3.0% | Inhibition ([9]; 0.1µM): -2.3% | Inhibition ([9]; 1µM): -14.0% | Inhibition ([10]; 0.1µM): 9.3% | Inhibition ([10]; 1µM): -1.5% | Inhibition ([11]; 0.1µM): -4.9% | Inhibition ([11]; 1µM): -4.5% | Inhibition [12]: -19.0% | Inhibition ([13]; 0.1µM): 5.2% | Inhibition ([13]; 1µM): -3.4% | Inhibition ([14]; 0.1µM, Activation Loop): 0.9% | Inhibition ([14]; 0.1µM, Lys1): -25.0% | Inhibition ([14]; 1µM, Activation Loop): -39.0% | Inhibition ([14]; 1µM, Lys1): -35.1% | Inhibition ([15]; 0.1µM): -6.2% | Inhibition ([15]; 1µM): -21.2% | Inhibition ([16]; 0.1µM): 14.0% | Inhibition ([16]; 1µM): -22.3% | Inhibition ([17]; 0.1µM): -2.3% | Inhibition ([17]; 1µM): -10.4% | Inhibition ([18]; 0.1µM, Activation Loop): 7.6% | Inhibition ([18]; 0.1µM, Lys1): 16.0% | Inhibition ([18]; 1µM, Activation Loop): -1.7% | Inhibition ([18]; 1µM, Lys1): 6.8% | Inhibition ([19]; 0.1µM, Activation Loop): 14.7% | Inhibition ([19]; 0.1µM, Lys1): 4.6% | Inhibition ([19]; 1µM, Activation Loop): 7.0% | Inhibition ([19]; 1µM, Lys1): 7.9% | Inhibition ([20]; 0.1µM): -65.0% | Inhibition ([20]; 1µM): -34.1% | Inhibition ([21]; 0.1µM): 12.4% | Inhibition ([21]; 1µM): -3.6% | Inhibition ([22]; 0.1µM): -3.4% | Inhibition ([22]; 1µM): 2.8% | Inhibition ([23]; 0.1µM): 10.1% | Inhibition ([23]; 1µM): 26.3% | Inhibition ([24]; 0.1µM, Activation Loop): 4.0% | Inhibition ([24]; 0.1µM, Lys1): 12.9% | Inhibition ([24]; 1µM, Activation Loop): 52.9% | Inhibition ([24]; 1µM, Lys1): 20.6% | Inhibition ([25]; 0.1µM, Lys1): 15.1% | Inhibition ([25]; 0.1µM, Lys2): 2.3% | Inhibition ([25]; 1µM, Lys1): 2.8% | Inhibition ([25]; 1µM, Lys2): -16.2% | Inhibition ([26]; 0.1µM, Activation Loop): 8.7% | Inhibition ([26]; 0.1µM, Lys2): -0.654% | Inhibition ([26]; 1µM, Activation Loop): 18.4% | Inhibition ([26]; 1µM, Lys2): 12.8% | Inhibition ([27]; 0.1µM): 11.5% | Inhibition ([27]; 1µM): -4.3% | Inhibition ([28]; 0.1µM): 20.0% | Inhibition ([28]; 1µM): 38.2% | Inhibition ([29]; 0.1µM): 22.5% | Inhibition ([29]; 1µM): 4.6% | Inhibition ([30]; 0.1µM): 12.1% | Inhibition ([30]; 1µM): 6.3% | Inhibition ([31]; 0.1µM): -11.9% | Inhibition ([31]; 1µM): -9.9% | Inhibition ([32]; 0.1µM): 13.7% | Inhibition ([32]; 1µM): 27.3% | Inhibition ([33]; 0.1µM): -16.3% | Inhibition ([33]; 1µM): -2.7% | Inhibition ([34]; 0.1µM): 8.8% | Inhibition ([34]; 1µM): 2.1% | Inhibition ([35]; 0.1µM): 22.4% | Inhibition ([35]; 1µM): -36.2%
